In ChEMBL document CHEMBL1201862, “PubChem BioAssay data set” (2004):
The source made the active and inactive calls.

Key:
[1] = target: Glycogen synthase kinase-3 beta (Homo sapiens, UniProt P49841); experiment: GSK3beta kinase inhibitors, dose response, biochemical, microfluidics, dry powder samples, set 2 (AID 623989); format: functional
Candida albicans = experiment: growth inhibition of resistant C. albicans, dose response, CaCi-8 strain, fluconazole, dry powder, set 4 (AID 488950); format: functional, organism-based
HEK293 [2] = experiment: SAR Analysis of small molecule inhibitors of B-cell specific antigen receptor-induced NF-kB activation in a HEK-293T cell line using a luminescence assay - Set 2. [Related pubchem assays (depositor defined):AID435022, AID435025, AID489021]; format: functional, cell-based; details: Homo sapiens
Jurkat = experiment: SAR Analysis of small molecule inhibitors of […] specific antigen receptor-induced NF-kB activation in a Jurkat cell line using a luminescence assay - Set 3. [Related pubchem assays (depositor defined):AID435022, AID435025, AID465]; format: functional, cell-based; details: Homo sapiens
HEK293 [3] = experiment: cytotoxicity in HEK293T NF-kB-Luc cells, SAR follow-up, cytotoxicity control for NF-kB activator project, cell-based, resazurin fluorescence (AID 493251); format: functional; details: Homo sapiens
Genome polyprotein = Genome polyprotein (dengue virus type 2, UniProt P29990); experiment: Dengue-2 NS5 methyltransferase inhibitors, primary screen, biochemical, confirmation dose response (AID 588689); format: functional
Sequence of Genome polyprotein (P29990 2492-3391 limits assumed): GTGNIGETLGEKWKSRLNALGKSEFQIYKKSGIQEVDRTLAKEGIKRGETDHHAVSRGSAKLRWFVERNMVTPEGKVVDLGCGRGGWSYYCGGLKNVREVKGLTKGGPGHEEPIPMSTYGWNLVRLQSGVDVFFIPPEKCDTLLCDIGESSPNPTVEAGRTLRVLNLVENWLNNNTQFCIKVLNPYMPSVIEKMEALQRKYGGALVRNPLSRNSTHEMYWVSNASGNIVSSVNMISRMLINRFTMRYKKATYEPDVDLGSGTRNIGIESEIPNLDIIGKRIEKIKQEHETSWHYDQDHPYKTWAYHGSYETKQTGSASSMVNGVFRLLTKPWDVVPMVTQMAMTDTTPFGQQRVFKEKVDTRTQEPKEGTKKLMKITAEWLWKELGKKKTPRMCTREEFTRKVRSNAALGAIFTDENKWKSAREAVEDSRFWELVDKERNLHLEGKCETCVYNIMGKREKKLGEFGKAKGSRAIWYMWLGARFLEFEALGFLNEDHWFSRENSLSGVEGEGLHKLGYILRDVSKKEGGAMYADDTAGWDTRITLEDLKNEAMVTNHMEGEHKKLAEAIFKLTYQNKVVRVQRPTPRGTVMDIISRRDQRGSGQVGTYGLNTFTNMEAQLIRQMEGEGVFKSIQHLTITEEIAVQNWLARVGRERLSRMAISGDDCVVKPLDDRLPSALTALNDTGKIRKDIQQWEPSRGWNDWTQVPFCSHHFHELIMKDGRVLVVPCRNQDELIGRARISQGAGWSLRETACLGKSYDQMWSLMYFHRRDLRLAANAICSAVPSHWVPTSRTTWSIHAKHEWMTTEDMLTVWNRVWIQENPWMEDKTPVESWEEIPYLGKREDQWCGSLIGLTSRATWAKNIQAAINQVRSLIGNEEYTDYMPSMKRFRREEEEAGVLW

Vero = Vero cell cytotoxicity, cytotoxicity control for flavivirus capping enzyme inhibitors (AID 588742); format: functional; details: Chlorocebus sabaeus
[4] = target: T1, Sentrin-specific protease 6 (Homo sapiens, UniProt Q9GZR1); experiment: SENP6 protease inhibitors, SAR follow-up, biochemical, luminescence, set 2 (AID 588598); format: functional
T1 sequence (Q9GZR1 whole entry): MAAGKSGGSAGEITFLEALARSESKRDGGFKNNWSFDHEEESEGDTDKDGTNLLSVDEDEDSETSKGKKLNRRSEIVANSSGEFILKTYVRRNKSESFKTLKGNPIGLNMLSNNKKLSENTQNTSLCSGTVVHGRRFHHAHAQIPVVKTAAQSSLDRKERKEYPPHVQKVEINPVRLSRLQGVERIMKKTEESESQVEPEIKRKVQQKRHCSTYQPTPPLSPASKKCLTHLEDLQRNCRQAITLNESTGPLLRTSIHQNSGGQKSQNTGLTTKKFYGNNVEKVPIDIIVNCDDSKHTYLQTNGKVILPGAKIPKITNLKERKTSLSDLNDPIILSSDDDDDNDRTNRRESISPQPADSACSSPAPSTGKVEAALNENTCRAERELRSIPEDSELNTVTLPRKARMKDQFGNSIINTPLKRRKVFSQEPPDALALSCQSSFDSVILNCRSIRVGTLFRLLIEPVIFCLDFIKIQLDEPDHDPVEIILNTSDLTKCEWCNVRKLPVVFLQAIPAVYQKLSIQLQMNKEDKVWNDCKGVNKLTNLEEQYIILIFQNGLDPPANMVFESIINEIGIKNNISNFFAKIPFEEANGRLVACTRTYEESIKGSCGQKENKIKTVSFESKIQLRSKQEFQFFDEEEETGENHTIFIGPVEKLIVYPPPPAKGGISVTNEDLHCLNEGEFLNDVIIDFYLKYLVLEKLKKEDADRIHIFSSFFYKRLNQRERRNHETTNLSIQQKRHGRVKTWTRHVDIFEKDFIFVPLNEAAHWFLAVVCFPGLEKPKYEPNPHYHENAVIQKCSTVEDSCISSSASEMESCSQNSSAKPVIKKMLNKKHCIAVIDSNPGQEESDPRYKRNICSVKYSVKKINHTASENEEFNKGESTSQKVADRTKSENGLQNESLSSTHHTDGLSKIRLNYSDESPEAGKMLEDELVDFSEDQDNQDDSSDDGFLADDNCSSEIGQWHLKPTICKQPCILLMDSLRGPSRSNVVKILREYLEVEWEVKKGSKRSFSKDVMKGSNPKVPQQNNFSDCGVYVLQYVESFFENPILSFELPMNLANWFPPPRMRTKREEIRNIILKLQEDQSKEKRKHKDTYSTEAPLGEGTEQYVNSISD

Caspase-3 [5] = target: T2, Caspase-3 (Homo sapiens, UniProt P42574); experiment: SAR Analysis of small molecule inhibitors of Sentrin-specific proteases (SENPs) using a Caspase-3 Selectivity assay. [Related pubchem assays (depositor defined):AID2540, AID2599, AID434973, AID489001]; format: functional
T2 sequence (P42574 whole entry): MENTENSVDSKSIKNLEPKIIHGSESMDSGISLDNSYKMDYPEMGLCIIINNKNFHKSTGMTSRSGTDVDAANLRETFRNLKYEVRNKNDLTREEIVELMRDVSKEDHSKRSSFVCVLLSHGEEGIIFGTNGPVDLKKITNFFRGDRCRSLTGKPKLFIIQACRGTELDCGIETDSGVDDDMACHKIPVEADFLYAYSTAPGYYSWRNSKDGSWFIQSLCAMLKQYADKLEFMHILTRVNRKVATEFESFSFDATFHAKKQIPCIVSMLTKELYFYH

Caspase-3 [6] = target: T2, Caspase-3; experiment: caspase-3 inhibitors as off-family protease, SAR follow-up, selectivity assay for SENP protease inhibitor project, biochemical, luminescence, set 2 (AID 588599); format: functional
[7] = target: T3, Sentrin-specific protease 8 (Homo sapiens, UniProt Q96LD8); experiment: SENP8 protease inhibitors, SAR follow-up, biochemical, luminescence, set 2 (AID 588601); format: functional
T3 sequence (Q96LD8 whole entry): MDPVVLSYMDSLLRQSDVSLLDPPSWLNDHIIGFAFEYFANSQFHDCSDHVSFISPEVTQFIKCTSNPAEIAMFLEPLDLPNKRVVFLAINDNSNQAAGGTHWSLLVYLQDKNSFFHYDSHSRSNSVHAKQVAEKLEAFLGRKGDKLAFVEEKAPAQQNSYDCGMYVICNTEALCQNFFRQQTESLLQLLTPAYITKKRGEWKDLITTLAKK

[8] = target: T4, Sentrin-specific protease 7 (Homo sapiens, UniProt Q9BQF6); experiment: SENP7 protease inhibitors, SAR follow-up, biochemical, luminescence, set 2 (AID 588600); format: functional
T4 sequence (Q9BQF6 whole entry): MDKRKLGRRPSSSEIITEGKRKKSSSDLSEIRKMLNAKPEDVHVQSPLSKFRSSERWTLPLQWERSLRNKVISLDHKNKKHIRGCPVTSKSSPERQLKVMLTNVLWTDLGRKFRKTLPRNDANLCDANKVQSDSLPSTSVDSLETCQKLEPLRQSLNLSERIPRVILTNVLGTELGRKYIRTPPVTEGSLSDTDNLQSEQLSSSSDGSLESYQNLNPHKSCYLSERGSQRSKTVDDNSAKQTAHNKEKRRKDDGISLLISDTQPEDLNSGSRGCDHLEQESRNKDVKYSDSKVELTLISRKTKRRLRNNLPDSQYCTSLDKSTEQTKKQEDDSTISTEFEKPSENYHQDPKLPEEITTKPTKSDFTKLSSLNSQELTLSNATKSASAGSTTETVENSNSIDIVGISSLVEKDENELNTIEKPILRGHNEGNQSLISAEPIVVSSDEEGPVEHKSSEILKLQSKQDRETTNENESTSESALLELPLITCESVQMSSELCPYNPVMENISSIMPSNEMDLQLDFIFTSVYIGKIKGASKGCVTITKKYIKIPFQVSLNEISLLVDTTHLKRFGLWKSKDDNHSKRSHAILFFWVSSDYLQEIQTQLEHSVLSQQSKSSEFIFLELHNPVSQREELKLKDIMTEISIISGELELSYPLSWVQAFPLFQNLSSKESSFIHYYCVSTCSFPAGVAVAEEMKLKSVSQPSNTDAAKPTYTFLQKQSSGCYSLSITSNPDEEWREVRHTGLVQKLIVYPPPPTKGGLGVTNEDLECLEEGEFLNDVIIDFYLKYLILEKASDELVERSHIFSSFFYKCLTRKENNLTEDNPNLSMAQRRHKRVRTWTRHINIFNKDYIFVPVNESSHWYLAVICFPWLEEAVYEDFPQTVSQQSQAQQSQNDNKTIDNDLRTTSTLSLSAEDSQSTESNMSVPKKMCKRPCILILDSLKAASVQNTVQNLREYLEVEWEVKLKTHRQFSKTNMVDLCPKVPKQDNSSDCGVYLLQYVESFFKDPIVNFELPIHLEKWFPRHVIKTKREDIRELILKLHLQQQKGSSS

[9] = target: T3, Sentrin-specific protease 8; experiment: SENP8 protease inhibitors, SAR follow-up, biochemical, luminescence (AID 504501); format: functional
[10] = target: T1, Sentrin-specific protease 6; experiment: SAR Analysis of small molecule inhibitors of Sentrin-specific protease 6 (SENP6) using a Luminescent assay. [Related pubchem assays (depositor defined):AID2582, AID2599]; format: functional
[11] = target: T4, Sentrin-specific protease 7; experiment: SENP7 protease inhibitors, SAR follow-up, biochemical, luminescence (AID 504497); format: functional
[12] = THP-1 cell cytotoxicity, cytotoxicity control, set 4 (AID 504911); format: functional; details: Mycobacterium tuberculosis
[13] = Vero cell cytotoxicity, dose response, cytotoxicity control for M. tuberculosis growth inhibitor project, Vero cells, purified and synthesized compounds, set 4 (AID 504854); format: functional; details: Mycobacterium tuberculosis
[14] = Vero cell cytotoxicity, dose response, cytotoxicity control for M. tuberculosis growth inhibitor project, Vero cells, purified and synthesized compounds, set 5 (AID 504909); format: functional; details: Mycobacterium tuberculosis
[15] = THP-1 cell cytotoxicity, dose response, cytotoxicity control, set 3 (AID 504852); format: functional; details: Mycobacterium tuberculosis
[16] = target: DNA dC->dU-editing enzyme APOBEC-3G (Homo sapiens, UniProt Q9HC16); experiment: APOBEC3G deaminase inhibitors, SAR follow-up, biochemical, fluorescence, single-stranded DNA substrate (AID 602136); format: functional; details: read-out: IC50_Mean
Sequence of DNA dC->dU-editing enzyme APOBEC-3G (Q9HC16 whole entry): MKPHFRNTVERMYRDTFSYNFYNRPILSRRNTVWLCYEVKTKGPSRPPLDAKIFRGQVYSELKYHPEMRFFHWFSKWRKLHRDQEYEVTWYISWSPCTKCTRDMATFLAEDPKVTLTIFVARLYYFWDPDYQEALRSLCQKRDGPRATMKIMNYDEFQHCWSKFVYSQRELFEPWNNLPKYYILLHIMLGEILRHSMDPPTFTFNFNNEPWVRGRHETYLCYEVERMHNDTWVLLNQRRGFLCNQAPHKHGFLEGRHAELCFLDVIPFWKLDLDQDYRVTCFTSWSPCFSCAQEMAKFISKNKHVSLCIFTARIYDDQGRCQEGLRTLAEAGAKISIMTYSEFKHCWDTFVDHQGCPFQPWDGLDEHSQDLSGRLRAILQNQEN

[17] = target: DNA dC->dU-editing enzyme APOBEC-3A (Homo sapiens, UniProt P31941); experiment: SAR analysis of small molecule inhibitors of APOBEC3A DNA Deaminase via a fluorescence-based single-stranded DNA deaminase assay.; format: functional; details: read-out: IC50_Mean
Sequence of DNA dC->dU-editing enzyme APOBEC-3A (P31941 whole entry): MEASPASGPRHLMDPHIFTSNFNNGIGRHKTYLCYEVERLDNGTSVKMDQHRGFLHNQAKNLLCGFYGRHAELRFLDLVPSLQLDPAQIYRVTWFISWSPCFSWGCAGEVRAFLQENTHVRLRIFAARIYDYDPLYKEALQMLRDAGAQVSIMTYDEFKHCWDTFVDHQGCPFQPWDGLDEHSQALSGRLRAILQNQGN

[18] = target: Mast/stem cell growth factor receptor Kit (Homo sapiens, UniProt P10721); format: functional;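 further: KIT entry within a kinase panel assay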
Sequence of Mast/stem cell growth factor receptor Kit (P10721 whole entry): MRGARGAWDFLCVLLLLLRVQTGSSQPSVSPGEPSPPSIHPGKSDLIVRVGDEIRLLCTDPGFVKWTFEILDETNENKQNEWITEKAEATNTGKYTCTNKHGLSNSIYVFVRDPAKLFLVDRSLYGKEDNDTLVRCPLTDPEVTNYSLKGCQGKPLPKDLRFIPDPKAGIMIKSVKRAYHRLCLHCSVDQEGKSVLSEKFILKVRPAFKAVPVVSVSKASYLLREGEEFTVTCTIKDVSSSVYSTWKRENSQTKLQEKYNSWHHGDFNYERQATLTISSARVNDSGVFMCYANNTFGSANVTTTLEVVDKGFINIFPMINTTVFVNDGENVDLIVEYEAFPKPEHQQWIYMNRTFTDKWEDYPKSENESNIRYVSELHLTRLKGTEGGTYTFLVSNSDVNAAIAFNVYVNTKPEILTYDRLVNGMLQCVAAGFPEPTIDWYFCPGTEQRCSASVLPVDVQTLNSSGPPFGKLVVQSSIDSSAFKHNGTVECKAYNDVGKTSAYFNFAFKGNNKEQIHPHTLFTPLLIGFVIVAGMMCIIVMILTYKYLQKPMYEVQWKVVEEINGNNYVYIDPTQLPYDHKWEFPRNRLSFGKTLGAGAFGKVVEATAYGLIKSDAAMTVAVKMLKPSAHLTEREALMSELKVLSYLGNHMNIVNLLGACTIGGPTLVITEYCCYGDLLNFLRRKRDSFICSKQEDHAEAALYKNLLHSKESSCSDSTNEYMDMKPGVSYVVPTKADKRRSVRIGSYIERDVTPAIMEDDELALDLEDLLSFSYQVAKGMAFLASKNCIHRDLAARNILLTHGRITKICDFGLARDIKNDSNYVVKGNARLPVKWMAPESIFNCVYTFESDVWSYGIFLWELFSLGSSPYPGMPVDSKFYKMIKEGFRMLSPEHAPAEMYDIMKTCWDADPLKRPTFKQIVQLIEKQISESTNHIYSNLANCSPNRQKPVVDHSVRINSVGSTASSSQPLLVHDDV

[19] = target: Tyrosine-protein kinase Blk (Homo sapiens, UniProt P51451); format: functional;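 further: obtained as one member of a kinome-wide kinase assay panel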
Sequence of Tyrosine-protein kinase Blk (P51451 whole entry): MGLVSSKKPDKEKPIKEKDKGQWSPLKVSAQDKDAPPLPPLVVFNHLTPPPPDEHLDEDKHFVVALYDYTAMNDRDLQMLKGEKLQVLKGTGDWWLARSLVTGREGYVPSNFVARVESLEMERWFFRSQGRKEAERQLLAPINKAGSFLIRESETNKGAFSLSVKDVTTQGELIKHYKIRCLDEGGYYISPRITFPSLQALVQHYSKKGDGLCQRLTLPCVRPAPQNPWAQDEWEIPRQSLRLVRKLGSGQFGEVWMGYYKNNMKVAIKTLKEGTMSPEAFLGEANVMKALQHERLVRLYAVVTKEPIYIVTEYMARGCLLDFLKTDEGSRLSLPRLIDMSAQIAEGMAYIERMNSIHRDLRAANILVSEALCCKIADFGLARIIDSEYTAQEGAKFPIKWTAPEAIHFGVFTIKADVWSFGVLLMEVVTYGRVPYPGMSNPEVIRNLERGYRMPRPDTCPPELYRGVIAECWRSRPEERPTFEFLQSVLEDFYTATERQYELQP

[20] = target: Tyrosine-protein kinase ABL1 (Homo sapiens, UniProt P00519); format: functional
[21] = target: Macrophage colony-stimulating factor 1 receptor (Homo sapiens, UniProt P07333); format: functional;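 further: value comes from the Navigating the Kinome screening panel, CSF1R member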
Sequence of Macrophage colony-stimulating factor 1 receptor (P07333 whole entry): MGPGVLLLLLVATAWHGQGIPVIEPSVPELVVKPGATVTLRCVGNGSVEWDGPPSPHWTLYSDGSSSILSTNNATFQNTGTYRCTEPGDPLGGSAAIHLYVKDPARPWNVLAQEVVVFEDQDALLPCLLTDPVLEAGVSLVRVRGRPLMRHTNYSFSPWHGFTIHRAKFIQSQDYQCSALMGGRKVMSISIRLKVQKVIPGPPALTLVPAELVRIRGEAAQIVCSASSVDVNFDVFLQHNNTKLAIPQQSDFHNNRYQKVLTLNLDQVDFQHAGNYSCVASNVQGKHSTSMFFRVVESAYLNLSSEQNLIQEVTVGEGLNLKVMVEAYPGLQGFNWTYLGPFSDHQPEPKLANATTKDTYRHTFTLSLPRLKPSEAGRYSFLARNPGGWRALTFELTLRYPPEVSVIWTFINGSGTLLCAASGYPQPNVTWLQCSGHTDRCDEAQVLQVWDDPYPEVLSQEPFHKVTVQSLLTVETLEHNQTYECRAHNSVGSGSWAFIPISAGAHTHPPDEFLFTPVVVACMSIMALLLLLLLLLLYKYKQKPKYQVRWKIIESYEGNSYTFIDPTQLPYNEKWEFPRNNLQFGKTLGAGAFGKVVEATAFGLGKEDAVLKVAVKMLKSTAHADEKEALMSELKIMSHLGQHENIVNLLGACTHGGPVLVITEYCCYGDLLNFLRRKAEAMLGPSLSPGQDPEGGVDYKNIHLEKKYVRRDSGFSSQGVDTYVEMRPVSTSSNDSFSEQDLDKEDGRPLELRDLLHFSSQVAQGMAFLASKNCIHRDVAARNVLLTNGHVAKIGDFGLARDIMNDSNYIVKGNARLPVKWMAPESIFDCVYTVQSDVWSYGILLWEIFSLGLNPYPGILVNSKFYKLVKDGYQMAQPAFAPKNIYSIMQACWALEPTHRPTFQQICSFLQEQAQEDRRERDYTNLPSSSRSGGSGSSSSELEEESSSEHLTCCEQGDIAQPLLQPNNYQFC

[22] = target: T5, Short transient receptor potential channel 4 (Mus musculus, UniProt Q9QUQ5); experiment: mouse TRPC4 channel inhibitors, dose response, cell-based, HEK293 TRPC4/mu-opioid, Fluo-4 calcium (AID 434942); format: functional;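 further: potency of inhibitors blocking the TRPC4 calcium response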
T5 sequence (Q9QUQ5 whole entry): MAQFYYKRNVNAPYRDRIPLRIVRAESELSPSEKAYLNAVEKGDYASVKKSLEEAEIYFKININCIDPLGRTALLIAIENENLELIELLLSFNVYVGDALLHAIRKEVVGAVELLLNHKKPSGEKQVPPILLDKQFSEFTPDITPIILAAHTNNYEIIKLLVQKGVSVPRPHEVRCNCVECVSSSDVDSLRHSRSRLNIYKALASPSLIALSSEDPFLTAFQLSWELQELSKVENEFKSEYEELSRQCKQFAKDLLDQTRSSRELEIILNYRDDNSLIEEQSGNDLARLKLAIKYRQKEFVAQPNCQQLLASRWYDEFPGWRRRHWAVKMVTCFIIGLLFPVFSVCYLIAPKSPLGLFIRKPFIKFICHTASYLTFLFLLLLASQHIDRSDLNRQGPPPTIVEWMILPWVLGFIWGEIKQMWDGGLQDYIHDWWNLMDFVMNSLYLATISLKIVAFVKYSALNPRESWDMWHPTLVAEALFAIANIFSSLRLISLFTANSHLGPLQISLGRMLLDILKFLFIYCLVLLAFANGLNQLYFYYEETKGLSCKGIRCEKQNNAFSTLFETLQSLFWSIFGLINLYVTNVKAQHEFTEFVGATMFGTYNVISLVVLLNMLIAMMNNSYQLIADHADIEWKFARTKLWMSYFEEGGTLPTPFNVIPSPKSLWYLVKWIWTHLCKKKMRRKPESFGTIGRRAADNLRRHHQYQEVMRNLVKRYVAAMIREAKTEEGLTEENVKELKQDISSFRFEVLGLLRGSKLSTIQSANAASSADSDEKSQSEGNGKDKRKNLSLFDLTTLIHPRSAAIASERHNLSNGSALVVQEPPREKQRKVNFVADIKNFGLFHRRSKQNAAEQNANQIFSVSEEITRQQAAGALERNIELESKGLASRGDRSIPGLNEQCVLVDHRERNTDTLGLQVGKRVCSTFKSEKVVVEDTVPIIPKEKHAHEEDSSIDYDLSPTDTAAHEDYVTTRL

[23] = target: Protein disulfide-isomerase (Homo sapiens, UniProt P07237); experiment: PDI inhibitors, insulin aggregation turbidity, dose response, biochemical, absorbance, cherry-picked samples (AID 602350); format: functional
Sequence of Protein disulfide-isomerase (P07237 whole entry): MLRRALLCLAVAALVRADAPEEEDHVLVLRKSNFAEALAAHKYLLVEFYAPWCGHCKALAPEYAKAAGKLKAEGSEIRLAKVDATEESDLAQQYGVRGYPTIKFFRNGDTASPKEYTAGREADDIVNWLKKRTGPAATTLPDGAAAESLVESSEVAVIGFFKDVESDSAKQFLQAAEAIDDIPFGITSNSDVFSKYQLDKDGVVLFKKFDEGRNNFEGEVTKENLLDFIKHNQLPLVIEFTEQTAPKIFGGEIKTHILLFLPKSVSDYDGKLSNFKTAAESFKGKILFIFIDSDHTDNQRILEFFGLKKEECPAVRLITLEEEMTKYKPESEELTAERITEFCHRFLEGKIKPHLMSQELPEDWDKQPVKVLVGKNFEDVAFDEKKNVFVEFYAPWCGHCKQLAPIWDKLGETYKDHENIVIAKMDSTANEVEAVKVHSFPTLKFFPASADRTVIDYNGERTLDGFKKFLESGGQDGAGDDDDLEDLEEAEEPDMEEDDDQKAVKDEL

Sequence of Glycogen synthase kinase-3 beta (P49841 whole entry): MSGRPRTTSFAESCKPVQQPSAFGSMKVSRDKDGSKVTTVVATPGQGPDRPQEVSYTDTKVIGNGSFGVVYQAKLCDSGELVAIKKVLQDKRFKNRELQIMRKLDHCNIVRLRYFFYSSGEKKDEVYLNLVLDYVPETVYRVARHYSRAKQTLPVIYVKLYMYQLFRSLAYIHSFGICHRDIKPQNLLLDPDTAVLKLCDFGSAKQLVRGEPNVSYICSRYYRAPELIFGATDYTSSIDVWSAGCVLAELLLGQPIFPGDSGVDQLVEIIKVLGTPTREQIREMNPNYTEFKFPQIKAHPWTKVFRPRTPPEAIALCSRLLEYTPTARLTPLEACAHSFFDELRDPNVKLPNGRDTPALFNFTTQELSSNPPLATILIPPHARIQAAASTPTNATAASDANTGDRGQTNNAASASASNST

COc1ccc(/C=C2\SC(NCc3ccccc3)=NC2=O)cc1
AC50 [1]: 6.02 µM (active)

O=C(c1ccc(Cl)cc1)N1CCN(c2cccc(C(F)(F)F)n2)CC1
AC50 (Candida albicans): 172 µM (active)

CCOc1ccc(-c2nc(CSCC(=O)NC(C)C)c(C)o2)cc1
IC50 (HEK293 [2]): 61.7 µM (inactive) | IC50 (Jurkat): > 80 µM (inactive) | IC50 (HEK293 [3]): > 80 µM (inactive)

O=S(=O)(N=C1C=CC(=NS(=O)(=O)c2ccccc2)c2ccccc21)c1ccccc1
IC50 (Genome polyprotein): 19.1 µM (active) | CC50 (Vero): 34.1 µM (active)

Fc1ccc(/C=C/c2nc(-c3ccccc3)no2)cc1
IC50 [4]: 1.83 µM (active) | IC50 (Caspase-3 [5]): 5 µM (active) | IC50 (Caspase-3 [6]): 3.02 µM (active) | IC50 [7]: 1.81 µM (active) | IC50 [8]: 2.09 µM (active) | IC50 [9]: 16 µM (active) | IC50 [10]: 2.1 µM (active) | IC50 [11]: 1.7 µM (active)

COc1cccc(NC(=O)CSc2nc3ccccc3c(=O)[nH]2)c1
CC50 [12]: > 100 µM (active) | CC50 [13]: > 100 µM (active) | CC50 [14]: > 100 µM (active) | CC50 [15]: > 100 µM (active)

Cc1ccc(N2C(=O)C(=O)N(CC(=O)c3ccc[nH]3)C2=O)c(C)c1
IC50 [16]: > 99 µM (inactive) | IC50 [17]: > 99 µM (inactive)

Cc1cc(C)cc(NC(=O)Nc2ccc(-c3ccnc4c3c(N)nn4C)cc2)c1
Ki [18]: 0.001 µM (active) | Ki [19]: 0.794 µM (active) | Ki [20]: > 0.631 µM (inactive) | Ki [21]: 0.002 µM (active)

CC(Cc1ccccc1Sc1ccccc1O)N(C)C (configuration not stated)
EC50 [22]: 0.944 µM (active) | AC50 [23]: 15.9 µM (active)
